≈ marks a conversion by molar mass, not a printed value. Like-named read-outs stand apart in the source and are kept apart here. Bridge positions count the residues as written; N and C are the ends. Peptide text beside a SMILES is read from it. I, II: the chains in the order shown.

In data set [1] the test system is erythrocytes from defibrinated horse blood. The settings on record: cited from earlier work. The procedure:
The calculated HC50 of Temporin-1CEh was 152.6 μM compared to that of Temporin-1CEa which was 160 μM [29]. Several modified strategies were used to optimise their antibacterial activity.

In data set [2] the test system is S. aureus (ATCC CRM 6538). The settings on record: MIC of Temporin-1CEa ref 29; cited from earlier work. From the text:
(§1) Table 2 The MICs and MBCs of Temporin-1CEh and its analogues as well as Temporin-1CEa against the S. aureus (ATCC CRM 6538), MRSA (NCTC 12493), E. faecalis (NCTC 12697), E. coli (ATCC 8739), P. aeruginosa (ATCC 27853) and K. pneumonia (ATCC 43816), as well as the MICs of Temporin-1CEa against S. aureus and E. coli. | column: MIC/MBC (μM) / Temporin-1CEa

For data set [3], the system named is E. coli (ATCC 8739). The settings on record: MIC of Temporin-1CEa ref 29; cited from earlier work.
Description: as §1

Data set [4] is described as follows: Aggregation at high concentration (observation). The settings on record: at a high concentration. Format: physicochemical.
For data set [5], the system named is S. aureus (ATCC CRM 6538) biofilm. In kind it is cell-based. As to the method: (§2) The anti-biofilm activities were tested on S. aureus and E. coli, as indicated previously. For the positive and negative control, 20 mg/mL of vancomycin and 1% DMSO were applied, respectively, in both assays. In addition, 0.1% Crystal Violet was used as the biofilm colouring agent.

The subject of data set [6] is E. coli (ATCC 8739) biofilm. Format: cell-based. As to the method: as §2
The test system of data set [7] is erythrocytes from defibrinated horse blood. Put plainly: Haemolysis assay. The following applies: at 256 μM; horse erythrocytes.
Description: The erythrocytes from defibrinated horse blood (TCS Biosciences Ltd., Buckingham, UK) were used to perform the haemolysis assay, as described previously [27]. Equal volumes of PBS and 2% (v/v) of the non-ionic detergent, Triton X-100 (Sigma–Aldrich, St. Louis, MO, USA) in PBS solution, were used as negative and positive controls, respectively. HC50 was defined as the mean peptide concentration producing 50% haemolysis.
Another data set relates to S. aureus. As to the kind of experiment: Galleria mellonella larvae infection model, S. aureus. The settings on record: at a concentration of 20 mg/kg; G. mellonella larvae. In kind it is in vivo. The procedure: (§3) In this assay, the larvae of the wax moth (Galleria mellonella) were used as the infection model. The larvae (Livefood UK Ltd., Rooks Bridge, UK) were selected between 225 and 275 mg (9 larvae per group in a Petri dish). For the positive and negative controls, 50 mg/kg of vancomycin (25 mg/kg of ampicillin for E. coli) and PBS were employed. Final concentration of S. aureus and E. coli cells injected was 5 × 10^5 and 5 × 10^6 CFU/larva, respectively. The assay was performed as described before and the number of alive larvae was recorded every 12 h.

Data set [8] relates to S. aureus (ATCC CRM 6538). Put plainly: Membrane permeability assay (SYTOX GREEN). Format: cell-based. An excerpt:
(§4) In order to test the permeability percentage of Temporin-1CEh and its analogues against S. aureus and E. coli, the SYTOX-GREEN nucleic acid stain was used in the assay indicated before. Tryptic soy broth (TSB) and Luria–Bertani (LB) broth were used as the media for S. aureus and E. coli, respectively.

The test system of data set [9] is E. coli (ATCC 8739). As to the kind of experiment: Membrane permeability assay (SYTOX GREEN). In kind it is cell-based.
Description: as §4

A further data set concerns E. coli. Put plainly: Galleria mellonella larvae infection model, E. coli. Format: in vivo. The settings on record: all tested concentrations; G. mellonella larvae, 5 × 10^6 CFU/larva. The procedure: as §3
The test system of data set [10] is S. aureus (ATCC CRM 6538). In kind it is cell-based. As to the method:
(§5) A measure of 5 × 10^5 CFU/mL of bacterial suspension including 2-fold dilution peptides (ranging from 1 µM to 512 µM) was incubated in 96-well plates for 16–20 h at 37 °C. For the positive and negative control, 200 mg/L of final concentration of norfloxacin and 1% DMSO were applied, respectively. […] Subsequently, 10 µL of the solution in each clear well was dropped on a Mueller–Hinton agar (MHA) plate and incubated at 37 °C for 16–20 h. The lowest concentration without colony growth was considered as the MBCs.
(§6) Mueller–Hinton broth (MHB) at pH 6.0 and 8.0 as well as MHB containing 10% of Fetal Bovine Serum (FBS), 150 mM of NaCl, 1 mM of MgCl2 and 4 µM of FeCl3, respectively, were prepared. In particular, the pathogens were diluted by the preprepared mediums to a final concentration of 5 × 10^5 CFU/mL after growing to the logarithmic phase, and other operations followed the MIC assay.

Data set [11] has as its system K. pneumoniae (ATCC 43816). Format: cell-based. As to the method: as §5, §6
The next data set relates to MRSA (NCTC 12493). Format: cell-based. As to the method: as §5, §6
Data set [12] has as its system E. coli (ATCC 8739). In kind it is cell-based. As to the method: as §5, §6
The subject of another data set is E. faecalis (NCTC 12697). Format: cell-based. As to the method: as §5, §6
For data set [13], the system named is P. aeruginosa (ATCC 27853). In kind it is cell-based. The procedure:
as §5, §6

On to FVDLKKIANIINSIF-NH2 [Temporin-1CEa], for which the HC50 in data set [1] is 160 µM. Also, the minimal inhibitory concentration (MIC) in data set [2] was 13.1 µM; in the data set on E. coli (ATCC 8739) [3], over 100 µM.
Turning to `CC[C@H](C)[C@H](NC(=O)[C@H](CCCCNC(=O)[C@H](CCCCN)NC(=O)[C@H](Cc1c[nH]c2ccccc12)NC(=O)[C@@H]1CCCN1C(=O)[C@@H](NC(=O)[C@H](Cc1c[nH]c2ccccc12)NC(=O)[C@H](CCCCN)NC(=O)[C@@H](N)CCCCN)C(C)C)NC(=O)[C@H](CCCCN)NC(=O)[C@H](Cc1c[nH]c2ccccc12)NC(=O)[C@@H]1CCCN1C(=O)[C@@H](NC(=O)[C@H](Cc1c[nH]c2ccccc12)NC(=O)[C@H](CCCCN)NC(=O)[C@@H](N)CCCCN)C(C)C)C(=O)N[C@@H](C)C(=O)N[C@@H](CC(N)=O)C(=O)N[C@H](C(=O)N[C@@H](CC(C)C)C(N)=O)[C@@H](C)CC` [Peptide T1CEh-KKPWW2] (I: H-KKWVPWKKIANIL-NH2 / II: H-KKWVPWK; amide I:8-II:C; N-terminus assumed), the aggregation result in [4] is “aggregation can be found in T1CEh-KKPWW2 at a high concentration, achieving hydrogel”. Further, the MBEC in data set [5] and in data set [6] was over 256 µM throughout. The MBIC in data set [5] worked out at 32 µM; in [6] it was 8 µM. In addition, in [7], the haemolysis rate is 63%. In addition, the “mortality of S. aureus infected larvae” value in the data set on S. aureus is reported as “significantly reduced the mortality”. Besides, the “permeability rates compared with that of Temporin-1CEh” value (in data set [8]; in the data set with E. coli (ATCC 8739) [9]) was “higher permeability rates” each time. In the data set with E. coli, the “mortality of E. coli infected larvae” value was “reduced the mortality”. Moreover, the MBC came to 8 µM (≈ 20.6 µg/mL) in data set [10] (ATCC CRM 6538); 8 µM (≈ 20.6 µg/mL) in data set [11] (ATCC 43816); 16 µM (≈ 41.2 µg/mL) in the data set with MRSA (NCTC 12493) (NCTC 12493); 2 µM (≈ 5.15 µg/mL) against E. coli (ATCC 8739) [12] (ATCC 8739); 64 µM (≈ 165 µg/mL) with E. faecalis (NCTC 12697) (NCTC 12697); 16 µM (≈ 41.2 µg/mL) in data set [13] (ATCC 27853). Further, the MIC stood at 4 µM (≈ 10.3 µg/mL) in [10] (ATCC CRM 6538); 8 µM (≈ 20.6 µg/mL) in data set [10] (ATCC CRM 6538, pH 6); 4 µM (≈ 10.3 µg/mL) in data set [10] (ATCC CRM 6538, pH 7); 2 µM (≈ 5.15 µg/mL) in data set [10] (ATCC CRM 6538, pH 8); 4 µM (≈ 10.3 µg/mL) in data set [11] (ATCC 43816); 8 µM (≈ 20.6 µg/mL) in data set [11] (ATCC 43816, pH 6). For the same compound, the MIC in data set [11] (ATCC 43816, pH 7) was determined as 4 µM (≈ 10.3 µg/mL); in data set [11] (ATCC 43816, pH 8), 4 µM (≈ 10.3 µg/mL); in the data set with MRSA (NCTC 12493) (NCTC 12493), 8 µM (≈ 20.6 µg/mL); against MRSA (NCTC 12493) (NCTC 12493, pH 6), 16 µM (≈ 41.2 µg/mL); against MRSA (NCTC 12493) (NCTC 12493, pH 7) it was 8 µM (≈ 20.6 µg/mL); in the data set with MRSA (NCTC 12493) (NCTC 12493, pH 8), 2 µM (≈ 5.15 µg/mL). For the same compound, the MIC was 2 µM (≈ 5.15 µg/mL) in the data set with E. coli (ATCC 8739) [12] (ATCC 8739); 2 µM (≈ 5.15 µg/mL) against E. coli (ATCC 8739) [12] (ATCC 8739, pH 6); 2 µM (≈ 5.15 µg/mL) in the data set on E. coli (ATCC 8739) [12] (ATCC 8739, pH 7); 2 µM (≈ 5.15 µg/mL) against E. coli (ATCC 8739) [12] (ATCC 8739, pH 8); 32 µM (≈ 82.4 µg/mL) in the data set with E. faecalis (NCTC 12697) (NCTC 12697); 128 µM (≈ 330 µg/mL) in the data set on E. faecalis (NCTC 12697) (NCTC 12697, pH 6). The MIC against E. faecalis (NCTC 12697) (NCTC 12697, pH 7) came out at 32 µM (≈ 82.4 µg/mL); against E. faecalis (NCTC 12697) (NCTC 12697, pH 8), 64 µM (≈ 165 µg/mL); in data set [13] (ATCC 27853) it was 8 µM (≈ 20.6 µg/mL); in [13] (ATCC 27853, pH 6), 32 µM (≈ 82.4 µg/mL); in data set [13] (ATCC 27853, pH 7), 8 µM (≈ 20.6 µg/mL); in [13] (ATCC 27853, pH 8), 8 µM (≈ 20.6 µg/mL). Besides, the “decrease of MIC comparing with that of T1CEh-KKPWW” value in the data set on MRSA (NCTC 12493) (MRSA) is listed as “four-fold”; in the data set with E. coli (ATCC 8739) [12] (E. coli), “twofold”; with E. faecalis (NCTC 12697) (E. faecalis) it was “four-fold”; in [13] (P. aeruginosa), “twofold”.
